In PubChem BioAssay AID248 (DTP/NCI, 2004):
“And” between values parts separate entries of the source, which are not always exact repeats. Identical values can stand only once. Toxic doses and inconclusive results are not listed. No stated cut-off is given here; in the data, active means T/C of 150% or more; inactive means T/C below 125%.

Test system: L1210 leukemia ip in BDF1 mice, survival T/C
Assay: NCI In Vivo Anticancer Drug Screen. Data for tumor model L1210 Leukemia (intraperitoneal) in B6D2F1 (BDF1) mice
Conditions: endpoint: mean survival time, higher = longer survival
Summary of the method: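 Tumor cells were implanted, animals were treated, and survival was followed. The result divides the treated measurement by the vehicle-control measurement.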

[1] = dose: 50.0 mg/kg/injection, schedule: Q01DX001 (ip), vehicle: saline
[2] = dose: 100.0 mg/kg/injection, schedule: Q01DX001 (ip), vehicle: saline
[3] = dose: 200.0 mg/kg/injection, schedule: Q01DX001 (ip), vehicle: saline
[4] = dose: 400.0 mg/kg/injection, schedule: Q01DX001 (ip), vehicle: saline
[5] = dose: 100.0 mg/kg/injection, schedule: Q04DX002 (ip), vehicle: Klucel (hydroxypropylcellulose) (HPC)
[6] = dose: 200.0 mg/kg/injection, schedule: Q04DX002 (ip), vehicle: Klucel (hydroxypropylcellulose) (HPC)
[7] = dose: 400.0 mg/kg/injection, schedule: Q04DX002 (ip), vehicle: Klucel (hydroxypropylcellulose) (HPC)
[8] = dose: 100.0 mg/kg/injection, schedule: Q01DX009 (ip), vehicle: Klucel (hydroxypropylcellulose) (HPC)
[9] = dose: 200.0 mg/kg/injection, schedule: Q01DX009 (ip), vehicle: Klucel (hydroxypropylcellulose) (HPC)
[10] = dose: 12.5 mg/kg/injection, schedule: Q04DX003 (ip), vehicle: Klucel (hydroxypropylcellulose) (HPC)
[11] = dose: 25.0 mg/kg/injection, schedule: Q04DX003 (ip), vehicle: Klucel (hydroxypropylcellulose) (HPC)
[12] = dose: 50.0 mg/kg/injection, schedule: Q04DX003 (ip), vehicle: Klucel (hydroxypropylcellulose) (HPC)
[13] = dose: 100.0 mg/kg/injection, schedule: Q04DX003 (ip), vehicle: Klucel (hydroxypropylcellulose) (HPC)
[14] = dose: 200.0 mg/kg/injection, schedule: Q04DX003 (ip), vehicle: Klucel (hydroxypropylcellulose) (HPC)
[15] = dose: 400.0 mg/kg/injection, schedule: Q01DX009 (ip), vehicle: Klucel (hydroxypropylcellulose) (HPC)
[16] = dose: 400.0 mg/kg/injection, schedule: Q04DX003 (ip), vehicle: Klucel (hydroxypropylcellulose) (HPC)
[17] = dose: 100.0 mg/kg/injection, schedule: Q01DX001 (ip), vehicle: carboxymethylcellulose (CMC)
[18] = dose: 200.0 mg/kg/injection, schedule: Q01DX001 (ip), vehicle: carboxymethylcellulose (CMC)
[19] = dose: 400.0 mg/kg/injection, schedule: Q01DX001 (ip), vehicle: carboxymethylcellulose (CMC)
[20] = dose: 100.0 mg/kg/injection, schedule: Q01DX001 (ip), vehicle: Klucel (hydroxypropylcellulose) (HPC)
[21] = dose: 200.0 mg/kg/injection, schedule: Q01DX001 (ip), vehicle: Klucel (hydroxypropylcellulose) (HPC)
[22] = dose: 400.0 mg/kg/injection, schedule: Q01DX001 (ip), vehicle: Klucel (hydroxypropylcellulose) (HPC)

Measured: T/C

CN1CC(C(=O)NC(C)(C)C)CC(c2ccccc2)C1 (stereo not given)
inactive: dose: 6.25 mg/kg/injection, schedule: Q01DX009 (ip), vehicle: saline 91 % of control | dose: 12.5 mg/kg/injection, schedule: Q01DX009 (ip), vehicle: saline 86 % of control | dose: 25.0 mg/kg/injection, schedule: Q01DX009 (ip), vehicle: saline 86 % of control

COc1ccc2c(=O)c(O)c(-c3ccc(OC)c(OC)c3)oc2c1
inactive: [1] 97 % of control | [2] 94 % of control | [3] 92 % of control | [4] 94 % of control

C[C@H]1CN1C1=CC(=O)C(N2C[C@@H]2C)=CC1=O
inactive: dose: 0.88 mg/kg/injection, schedule: Q04DX003 (ip), vehicle: other 106 % of control | dose: 1.0 mg/kg/injection, schedule: Q01DX001 (ip), vehicle: other 108 % of control | dose: 1.56 mg/kg/injection, schedule: Q01DX009 (ip), vehicle: other 120 % of control | dose: 2.0 mg/kg/injection, schedule: Q01DX001 (ip), vehicle: other 105 % of control | dose: 2.0 mg/kg/injection, schedule: Q04DX003 (ip), vehicle: Klucel (hydroxypropylcellulose) (HPC) 108 % of control | dose: 2.0 mg/kg/injection, schedule: Q04DX003 (ip), vehicle: other 120 % of control | dose: 4.0 mg/kg/injection, schedule: Q04DX003 (ip), vehicle: Klucel (hydroxypropylcellulose) (HPC) 117 % of control | dose: 8.0 mg/kg/injection, schedule: Q04DX003 (ip), vehicle: Klucel (hydroxypropylcellulose) (HPC) 124 % of control | dose: 9.0 mg/kg/injection, schedule: Q04DX003 (ip), vehicle: saline with Tween-80 95 % of control | dose: 9.5 mg/kg/injection, schedule: Q01DX001 (ip), vehicle: other 114 % of control | dose: 12.0 mg/kg/injection, schedule: Q01DX009 (ip), vehicle: other 92 % of control | dose: 25.0 mg/kg/injection, schedule: Q04DX003 (ip), vehicle: saline with Tween-80 105 % of control
active: dose: 5.0 mg/kg/injection, schedule: Q01DX009 (ip), vehicle: other 166 % of control

O=C1c2ccccc2C2(Br)C(=O)c3ccccc3C12Br (stereo not given)
inactive: [5] 104 % of control | [6] 101 % of control | [7] 93 % of control

CC(=O)c1cccc(NC(=O)Oc2ccc(Cl)cc2Cl)c1
inactive: [8] 101 % of control | [9] 110 % of control

NC(=S)N/N=C\c1c[nH]c2cc(C(F)(F)F)ccc12
inactive: dose: 5.0 mg/kg/injection, schedule: Q01DX001 (ip), vehicle: carboxymethylcellulose (CMC) 101 % of control | dose: 10.0 mg/kg/injection, schedule: Q01DX001 (ip), vehicle: carboxymethylcellulose (CMC) 95 % of control | dose: 20.0 mg/kg/injection, schedule: Q01DX001 (ip), vehicle: carboxymethylcellulose (CMC) 101 % of control | dose: 40.0 mg/kg/injection, schedule: Q01DX001 (ip), vehicle: carboxymethylcellulose (CMC) 101 % of control

CCCCCCC(=O)/C=C/c1ccc(N(C)C)cc1
inactive: dose: 100.0 mg/kg/injection, schedule: Q01DX001 (sc), vehicle: steriod suspending solution 97 % of control | dose: 100.0 mg/kg/injection, schedule: Q04DX003 (sc), vehicle: steriod suspending solution 105 % of control | dose: 200.0 mg/kg/injection, schedule: Q01DX001 (sc), vehicle: steriod suspending solution 105 % of control | dose: 200.0 mg/kg/injection, schedule: Q04DX003 (sc), vehicle: steriod suspending solution 103 % of control | dose: 400.0 mg/kg/injection, schedule: Q01DX001 (sc), vehicle: steriod suspending solution 97 % of control | dose: 400.0 mg/kg/injection, schedule: Q04DX003 (sc), vehicle: steriod suspending solution 102 % of control

CC1=CC(=O)CC(C)(C)C1(O)/C=C/C(C)=C/C(=O)O (stereo not given)
inactive: [10] 93 % of control | dose: 25.0 mg/kg/injection, schedule: Q01DX009 (ip), vehicle: Klucel (hydroxypropylcellulose) (HPC) 87 % of control | [11] 96 % of control | dose: 50.0 mg/kg/injection, schedule: Q01DX009 (ip), vehicle: Klucel (hydroxypropylcellulose) (HPC) 88 % of control | [12] 88 % of control | [8] 93 % of control | [13] 96 % of control | [9] 92 % of control | [14] 98 % of control | [15] 95 % of control | [16] 102 % of control

O=C(O)c1cccc(-n2cnc3c(=O)[nH]cnc32)c1
inactive: [1] 108 % of control | [2] 93 % of control | [3] 96 % of control | [4] 104 % of control

O=C1CC(OC(=O)c2ccccc2)(c2ccccc2)OC(c2ccccc2)=C1c1ccccc1 (stereo not given)
inactive: [2] 101 % of control | [13] 97 % of control | [3] 104 % of control | [14] 100 % of control | [4] 96 % of control | [16] 100 % of control

COc1ccc(C2CC(O)C3CCC2C3)cc1 (stereo not given)
inactive: [5] 93 % of control | [6] 97 % of control | [7] 93 % of control

NC1=NC(c2ccccc2)C2=C(N1)C(=O)N(Cc1ccccc1)C2 (stereo not given)
inactive: dose: 50.0 mg/kg/injection, schedule: Q01DX001 (ip), vehicle: carboxymethylcellulose (CMC) 98 % of control | [17] 101 % of control | [18] 98 % of control | [19] 95 % of control

Cc1ccc(NC(=O)N(CCI)N=O)cc1
active: dose: 58.0 mg/kg/injection, schedule: Q01DX015 (ip), vehicle: carboxymethylcellulose (CMC) 161 % of control | dose: 88.0 mg/kg/injection, schedule: Q01DX015 (ip), vehicle: carboxymethylcellulose (CMC) 157 % of control | [19] 159 % of control
inactive: dose: 17.0 mg/kg/injection, schedule: Q01DX015 (ip), vehicle: carboxymethylcellulose (CMC) 110 % of control | dose: 133.0 mg/kg/injection, schedule: Q01DX015 (ip), vehicle: carboxymethylcellulose (CMC) 92 % of control | dose: 177.0 mg/kg/injection, schedule: Q01DX001 (ip), vehicle: carboxymethylcellulose (CMC) 121 % of control | dose: 200.0 mg/kg/injection, schedule: Q01DX015 (ip), vehicle: carboxymethylcellulose (CMC) 111 % of control and 113 % of control

O=C1OCC/C1=C\c1ccccc1
inactive: [17] 91 % of control | [18] 94 % of control

O=C(O)C1(C(=O)O)CCC2(CCCCC2)CC1
inactive: dose: 25.0 mg/kg/injection, schedule: Q01DX009 (ip), vehicle: water 95 % of control | dose: 50.0 mg/kg/injection, schedule: Q01DX009 (ip), vehicle: water 101 % of control

CC(C)(C)NO
inactive: [20] 113 % of control | [8] 108 % of control | [21] 101 % of control | [9] 103 % of control | [22] 98 % of control | [15] 101 % of control

Cc1ccc(S(=O)(=O)Nc2ccccc2OS(=O)(=O)c2ccc(C)cc2)cc1
inactive: [20] 95 % of control | [8] 106 % of control | [13] 101 % of control | [21] 89 % of control | [9] 108 % of control | [14] 100 % of control | [22] 93 % of control | [15] 106 % of control | [16] 97 % of control

Cc1ccccc1[As](c1ccccc1C)c1ccccc1C
inactive: dose: 100.0 mg/kg/injection, schedule: Q04DX003 (ip), vehicle: saline with Tween-80 87 % of control

C=CCNC(=S)Nc1cccc2ccccc12
inactive: [10] 105 % of control | [11] 96 % of control | [12] 105 % of control

COc1cc(N2C(=O)C=CC2=O)ccc1N1C(=O)C=CC1=O
inactive: dose: 5.0 mg/kg/injection, schedule: Q01DX001 (ip), vehicle: saline 111 % of control | dose: 10.0 mg/kg/injection, schedule: Q01DX001 (ip), vehicle: saline 111 % of control
